Marks after values point to notes of the source that are not given here. No end group written: not given here.
Legend:
[1] = system: intracellular APEC O78 in HD11 cells; test: Intracellular survival of APEC in HD11 cells (gentamicin protection assay); format: cell-based, chicken
Protocol: Effect of peptides on intracellular survival of APEC in HD11 cells: To determine the efficacy of peptides (P1, P2, and P3) against intracellular APEC, gentamicin protection assay was conducted in HD 11 (chicken macrophage) cells as described previously. The cells were cultured in Iscove's Modified Dulbecco's Media (IMDM) supplemented with 10% fetal bovine serum (FBS), 2 mM L-glutamine and 2% penicillin-streptomycin (P/S) solution and maintained at 37° C. incubator with 5% C02. Cells (approximately 10^4 cells/well) were seeded in a 96-well cell culture plate in 100 μL culture media and incubated for 36 h prior to using for the assay. Following incubation, the cells were replenished with 100 μL of fresh cell culture media with no FBS and antibiotic and incubated until infection (2 h). For the infection, the overnight grown APEC O78 was subcultured to mid-logarithmic phase, centrifuged, washed twice with PBS, adjusted to 1×10^7 CFU/mL. One-hundred microliters of the APEC suspension (MOI: 100) was added to each well of the 96-well plate and incubated for 1 h to allow the invasion. The cells were washed twice and treated with gentamicin (150 μg/mL) to kill the extracellular APEC. The cells were treated with peptides at 12 mM, 15 mM, and 18 mM concentrations. Infected but not treated, infected and DMSO-treated, and non-infected and not treated cells were used as controls. Three independent experiments were conducted.

cecal microbiota = test: Cecal microbiome analysis (peptides, APEC infected); format: in vivo, chickens
Protocol: Cecal microbiome analysis: To investigate the impact of peptides (P1, P2, and P3) treatment (50 mg/kg and 100 mg/kg) on cecal microbiome of chickens, 16S rRNA based metagenomic study was conducted as previously described. DNA was extracted from 0.2 g of cecal contents using PureLink™ Microbiome DNA Purification Kit (Thermofisher Scientific) and treated with RNase A (2 μL of 100 mg/mL solution per sample; Qiagen) to remove the RNA. DNA quantity and quality were measured using NanoDrop 2000c Spectrophotometer (Thermo Fisher Scientific). The extracted DNA samples were subjected to 16S rRNA V4-V5 sequencing at molecular and cellular imaging center (MCIC), Ohio Agricultural Research and Development Center (OARDC) (mcic.osu.edu/genomics/illumina-sequencing). Amplicon libraries were prepared using IFU KAPA HiFi HotStart ReadyMixPCR Kit (Roche) and PCR clean-up was performed using Agencourt AMPure XP beads (BECKMAN COULTER Life Sciences). Nextera XT DNA Library Preparation Kit (Illumina) was used to generate Illumina library and sequencing was performed using Illumina MiSeq platform generating paired end 300-bp reads.
For the metagenomic analysis, QIIME (Quantitative Insights into Microbial Ecology) 2 bioinformatics platform (qiime2.org/) was used. Quality control of the raw reads was performed using FastQC 0.11.8 (Babraham Bioinformatics). Trimmomatic-0.33 was used to trim the adaptor and other illumina-specific sequences (www.usadellab.org/cms/?page=trimmomatic). The trimmed sequences (fastq.gz) were then imported into the QIIME 2 as a manifest file format (PairedEndManifestPhred33V2). The feature table construction and additional filtering of the sequences was performed using DADA2. The taxonomic analysis was performed using Naive Bayes classifiers trained on the Silva 132 99% OTUs (silva-132-99-nb-classifier.qza) database. The phylogenetic diversity was analyzed using align-to-tree-mafft-fasttree pipeline and alpha ([…]) were analyzed using core-metrics-phylogenetic pipeline (docs.qiime2.org/2019.7/tutorials/moving-pictures/). The statistical difference (P<0.05) in the taxonomic composition between the peptides treated, PC, and NC groups was determined using Mann-Whitney U test. The alpha and beta diversity were analyzed using Kruskal-Wallis and PERMANOVA tests (P<0.05), respectively.

In the case of PDENK [Peptide P2, PDENK], the “Intracellular APEC (log CFU/mL)” value ([1]; 12 mM, untreated 3.75 ± 0.10) is reported as 3.33 ± 0.03 log CFU/mL, the “Intracellular APEC (log CFU/mL)” value ([1]; 15 mM) is reported as “No intracellular APEC was recovered” and the “Intracellular APEC (log CFU/mL)” value ([1]; 15 mM, listed as P-2) is reported as 0.00 ± 0.00 log CFU/mL. For the same substance, the “Intracellular APEC (log CFU/mL)” value ([1]; 18 mM) was 0.00 ± 0.00 log CFU/mL, the “Beta-diversity (weighted unifrac) vs NC chickens” value (cecal microbiota; 50 mg/kg) was “similar” and the “Beta-diversity (weighted unifrac) vs NC chickens” value (cecal microbiota; 100 mg/kg) was “significantly (P<0.01) different”. For the same substance, the “Relative abundance Clostridia” value (cecal microbiota; class, 100 mg/kg) was 64.92%, the “Relative abundance Lachnospiraceae” value (cecal microbiota; family, 100 mg/kg) was 56.10% and the “Relative abundance Lactobacillaceae” value (cecal microbiota; family, 100 mg/kg) was 1.38%. For the same substance, the “Relative abundance Leuconostocaceae” value (cecal microbiota; family, 100 mg/kg, from 0.31%) was 0%, the “Relative abundance Clostridiaceae 1” value (cecal microbiota; family, 100 mg/kg, from 0.53%) was 0% and the “Relative abundance (%) Anaerotruncus” value (cecal microbiota; genus, 50-mg/kg dose) was 0.00%. For the same substance, the “Relative abundance (%) Bacteroides” value (cecal microbiota; genus, 50-mg/kg dose) was 55.87%, the “Relative abundance (%) Clostridioides” value (cecal microbiota; genus, 50-mg/kg dose) was 0.00% and the “Relative abundance (%) Clostridium sensu stricto 1” value (cecal microbiota; genus, 50-mg/kg dose) was 0.00%. For the same substance, the “Relative abundance (%) Enterococcus” value (cecal microbiota; genus, 50-mg/kg dose) was 1.24%, the “Relative abundance (%) Erysipelatoclostridium” value (cecal microbiota; genus, 50-mg/kg dose) was 3.84^a % and the “Relative abundance (%) Escherichia-Shigella” value (cecal microbiota; genus, 50-mg/kg dose) was 4.95%. For the same substance, the “Relative abundance (%) Flavonifractor” value (cecal microbiota; genus, 50-mg/kg dose) was 0.68%, the “Relative abundance (%) Lachnospiraceae (uncultured)” value (cecal microbiota; genus, 50-mg/kg dose) was 2.30% and the “Relative abundance (%) Oscillibacter” value (cecal microbiota; genus, 50-mg/kg dose) was 0.00%. For the same substance, the “Relative abundance (%) Pediococcus” value (cecal microbiota; genus, 50-mg/kg dose) was 0.74%, the “Relative abundance (%) Ruminiclostridium 5” value (cecal microbiota; genus, 50-mg/kg dose) was 0.23% and the “Relative abundance (%) Ruminiclostridium 9” value (cecal microbiota; genus, 50-mg/kg dose) was 1.25%. For the same substance, the “Relative abundance (%) Ruminococcus gnavus group” value (cecal microbiota; genus, 50-mg/kg dose) was 0.00%, the “Relative abundance (%) Ruminococcus torques group” value (cecal microbiota; genus, 50-mg/kg dose) was 9.83% and the “Relative Abundance (%) Blautia” value (cecal microbiota; genus, 100-mg/kg dose) was 0.00%. For the same substance, the “Relative Abundance (%) Caproiciproducens” value (cecal microbiota; genus, 100-mg/kg dose) was 0.00%, the “Relative Abundance (%) Lactobacillus” value (cecal microbiota; genus, 100-mg/kg dose) was 0.00% and the “Relative Abundance (%) Sellimonas” value (cecal microbiota; genus, 100-mg/kg dose) was 0.00^b %. For the same substance, the “Relative Abundance (%) [Clostridium] innocuum group” value (cecal microbiota; genus, 100-mg/kg dose) was 0.00^b %, the “Relative Abundance (%) [Eubacterium] coprostanoligenes group” value (cecal microbiota; genus, 100-mg/kg dose) was 0.00% and the “Relative abundance (%) Anaerotruncus” value (cecal microbiota; genus, 100-mg/kg dose) was 0.00%. The “Relative abundance (%) Bacillus” value (cecal microbiota; genus, 100-mg/kg dose) was 0.37%, the “Relative abundance (%) Butyricicoccus” value (cecal microbiota; genus, 100-mg/kg dose) was 1.53% and the “Relative abundance (%) Clostridiales vadin BB60 group” value (cecal microbiota; genus, 100-mg/kg dose) was 0.00%. For the same substance, the “Relative abundance (%) Clostridioides” value (cecal microbiota; genus, 100-mg/kg dose) was 0.00%, the “Relative abundance (%) Clostridium sensu stricto 1” value (cecal microbiota; genus, 100-mg/kg dose) was 0.00% and the “Relative abundance (%) Enterococcus” value (cecal microbiota; genus, 100-mg/kg dose) was 2.01%. The “Relative abundance (%) Erysipelatoclostridium” value (cecal microbiota; genus, 100-mg/kg dose) was 14.71^b %, the “Relative abundance (%) Escherichia-Shigella” value (cecal microbiota; genus, 100-mg/kg dose) was 13.77% and the “Relative abundance (%) Flavonifractor” value (cecal microbiota; genus, 100-mg/kg dose) was 0.68^b %. For the same substance, the “Relative abundance (%) Lachnospiraceae (uncultured)” value (cecal microbiota; genus, 100-mg/kg dose) was 0.73%, the “Relative abundance (%) Lactococcus” value (cecal microbiota; genus, 100-mg/kg dose) was 0.40% and the “Relative abundance (%) Oscillibacter” value (cecal microbiota; genus, 100-mg/kg dose) was 0.13%. The “Relative abundance (%) Paenibacillus” value (cecal microbiota; genus, 100-mg/kg dose) was 0.00%, the “Relative abundance (%) Pediococcus” value (cecal microbiota; genus, 100-mg/kg dose) was 1.38^b % and the “Relative abundance (%) Ruminiclostridium 5” value (cecal microbiota; genus, 100-mg/kg dose) was 0.28%. For the same substance, the “Relative abundance (%) Ruminiclostridium 9” value (cecal microbiota; genus, 100-mg/kg dose) was 0.78%, the “Relative abundance (%) Ruminococcacede UCG-005” value (cecal microbiota; genus, 100-mg/kg dose) was 2.19% and the “Relative abundance (%) Ruminococcus torques group” value (cecal microbiota; genus, 100-mg/kg dose) was 10.37%. The “Relative abundance (%) UBA1819” value (cecal microbiota; genus, 100-mg/kg dose) was 0.68% and the “Relative abundance (%) Weissella” value (cecal microbiota; genus, 100-mg/kg dose) was 2.43^a %.
